The target of this experiment is T1, human PAR-2 (hPAR-2) receptor expressed in HEK-293 T cells in an endogenous manner (Homo sapiens, UniProt P55085).
T1 construct: human PAR-2 (hPAR-2) receptor expressed in HEK-293 T cells in an endogenous manner; endogenous in cells; host or cells: HEK-293 T cells
T1 sequence (P55085 26-397): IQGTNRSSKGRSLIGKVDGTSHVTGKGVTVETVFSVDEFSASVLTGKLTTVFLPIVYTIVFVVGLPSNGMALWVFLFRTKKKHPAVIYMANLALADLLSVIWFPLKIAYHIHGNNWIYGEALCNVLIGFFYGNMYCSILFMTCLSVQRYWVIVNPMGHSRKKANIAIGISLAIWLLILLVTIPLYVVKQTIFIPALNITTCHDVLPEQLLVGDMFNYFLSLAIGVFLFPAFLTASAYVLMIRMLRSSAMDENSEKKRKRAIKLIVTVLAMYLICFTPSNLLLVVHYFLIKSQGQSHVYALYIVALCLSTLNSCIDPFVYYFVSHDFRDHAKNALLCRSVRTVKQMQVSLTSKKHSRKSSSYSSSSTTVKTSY
Put plainly: In vitro human PAR-2 functional antagonist activity using calcium assays (Fluo4AM, FLIPR Tetra). The following applies: HEK-293 T cells stimulated by an EC80 of the 2-Furoyl-LIGRLO-NH2 peptide after 10 min incubation with compound; 20 concentrations, duplicate, two independent experiments. The experiment is classed as cell-based. The method in brief: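 Antagonist activity was taken as the decrease in the calcium response to an EC80 of 2-Furoyl-LIGRLO-NH2, measured over 5 min. The agonist was added after a 10 min compound-alone step on the same plate. The HEK-293 T cells express PAR-2 endogenously and were loaded with 1 μM Fluo4AM. Signals were referenced to buffer and EC80-alone controls.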

In patent US20240066027A1 (DOMAIN THERAPEUTICS, priority 2020, published 2024) one finds IC50 data, which are given here for 27 compounds.

Consider `Cc1cc(N2CCN(C(=O)c3ccc4c(n3)c(C(C)(C)C)cn4-c3ccc(Cl)c(F)c3)C(C)(C)C2)nc(C)c1C(=O)O` [Example 185, 6-(4-(3-(tert-butyl)-1-(4-chloro-3-fluorophenyl)-1H-pyrrolo[3,2-b]pyridine-5-carbonyl)-3,3-dimethylpiperazin-1-yl)-2,4-dimethylnicotinic acid], for which the IC50 (commonly the concentration needed to halve the response being measured) is less than 20 nM. The value for `O=C(c1ccc2c(-c3ccc(Cl)c(F)c3)cn(CC(F)(F)F)c2n1)N1CCCOCC1` [Example 32, (3-(4-chloro-3-fluorophenyl)-1-(2,2,2-trifluoroethyl)-1H-pyrrolo[2,3-b]pyridin-6-yl)(1,4-oxazepan-4-yl)methanone] was greater than 10000 nM; that for `Cc1cc(N2CCN(C(=O)c3ccc4c(-c5cc(F)c(F)c(F)c5)cn(CC(C)C)c4n3)C(C)(C)C2)nc(C)c1C(=O)O` [Example 143, 6-(4-(1-isobutyl-3-(3,4,5-trifluorophenyl)-1H-pyrrolo[2,3-b]pyridine-6-carbonyl)-3,3-dimethylpiperazin-1-yl)-2,4-dimethylnicotinic acid] was less than 20 nM. As to `COc1ccc(-c2cn(CC(C)C)c3nc(C(=O)N4CCNC(=O)C4(C)C)ccc23)cn1` [Example 105, 4-(1-isobutyl-3-(6-methoxypyridin-3-yl)-1H-pyrrolo[2,3-b]pyridine-6-carbonyl)-3,3-dimethylpiperazin-2-one], the IC50 is 20 to 10000 nM. `O=C(c1ccc2c(-c3ccc(Cl)c(F)c3)cn(CC(F)(F)F)c2n1)N1CC2CCC(C1)O2` [Example 33, (8-oxa-3-azabicyclo[3.2.1]octan-3-yl)(3-(4-chloro-3-fluorophenyl)-1-(2,2,2-trifluoroethyl)-1H-pyrrolo[2,3-b]pyridin-6-yl)methanone]: the 50% inhibitory concentration (IC50) was greater than 10000 nM. Turning to `Cc1cc(N2CCN(C(=O)c3cc(C)c4c(-c5ccc(Cl)c(F)c5)cn(CC(C)C)c4n3)CC2)nc(C)c1C(=O)O` [Example 189, 6-(4-(3-(4-chloro-3-fluorophenyl)-1-isobutyl-4-methyl-1H-pyrrolo[2,3-b]pyridine-6-carbonyl)piperazin-1-yl)-2,4-dimethylnicotinic acid], the IC50 was greater than 10000 nM. Then `CC1(C)C(=O)NCCN1C(=O)c1ccc2c(-c3ccc(Cl)c(F)c3)cn(CC3CC3)c2n1` [Example 35, 4-(3-(4-chloro-3-fluorophenyl)-1-(cyclopropylmethyl)-1H-pyrrolo[2,3-b]pyridine-6-carbonyl)-3,3-dimethylpiperazin-2-one], with less than 20 nM. The value for `CC(C)Cn1cc(-c2cccc(C#N)c2)c2ccc(C(=O)N3CCNC(=O)C3(C)C)nc21` [Example 117, 3-(6-(2,2-dimethyl-3-oxopiperazine-1-carbonyl)-1-isobutyl-1H-pyrrolo[2,3-b]pyridin-3-yl)benzonitrile] was 20 to 10000 nM; that for `CN1CNC(=O)C12CCN(C(=O)c1ccc3c(-c4ccc(Cl)c(F)c4)cn(C(C)(C)C)c3n1)CC2` [Example 209, 8-(1-(tert-butyl)-3-(4-chloro-3-fluorophenyl)-1H-pyrrolo[2,3-b]pyridine-6-carbonyl)-1-methyl-1,3,8-triazaspiro[4.5]decan-4-one] was greater than 10000 nM.

Consider `CC(C)Cc1nn(-c2ccc(Cl)c(F)c2)c2ccc(C(=O)N3CCC4(CC3)NC(=O)NC4=O)nc12` [Example 70, 8-(1-(4-chloro-3-fluorophenyl)-3-isobutyl-1H-pyrazolo[4,3-b]pyridine-5-carbonyl)-1,3,8-triazaspiro[4.5]decane-2,4-dione], for which the IC50 was greater than 10000 nM. In the case of `COC(=O)CC1CCN(C(=O)c2ccc3c(-c4ccc(Cl)c(F)c4)cn(CC(C)C)c3c2)CC1` [Example 203, methyl 2-(1-(3-(4-chloro-3-fluorophenyl)-1-isobutyl-1H-indole-6-carbonyl)piperidin-4-yl)acetate], the IC50 is 20 to 10000 nM. The value for `Cn1cc(-c2ccc(Cl)c(F)c2)c2ccc(C(=O)N3CCNC(=O)C3(C)C)nc21` [Example 34, 4-(3-(4-chloro-3-fluorophenyl)-1-methyl-1H-pyrrolo[2,3-b]pyridine-6-carbonyl)-3,3-dimethylpiperazin-2-one] was 20 to 10000 nM; that for `Cc1ccc(-c2cn(CC(C)C)c3nc(C(=O)N4CCN(c5cc(C)c(C(=O)O)c(C)n5)CC4(C)C)ccc23)cc1F` [Example 142, 6-(4-(3-(3-fluoro-4-methylphenyl)-1-isobutyl-1H-pyrrolo[2,3-b]pyridine-6-carbonyl)-3,3-dimethylpiperazin-1-yl)-2,4-dimethylnicotinic acid] was less than 20 nM.

Consider `CC1(C)C(=O)N(CC(N)=O)CCN1C(=O)c1ccc2c(-c3ccc(Cl)c(F)c3)cn(C(C)(C)C)c2n1` [Example 5, 2-(4-(1-(tert-butyl)-3-(4-chloro-3-fluorophenyl)-1H-pyrrolo[2,3-b]pyridine-6-carbonyl)-3,3-dimethyl-2-oxopiperazin-1-yl)acetamide], for which the IC50 is less than 20 nM. `CN1C(=O)N(C)C2(CCN(C(=O)c3ccc4c(-c5ccc(Cl)c(F)c5)cn(C(C)(C)C)c4n3)CC2)C1=O` [Example 197, 8-(1-(tert-butyl)-3-(4-chloro-3-fluorophenyl)-1H-pyrrolo[2,3-b]pyridine-6-carbonyl)-1,3-dimethyl-1,3,8-triazaspiro[4.5]decane-2,4-dione]: the IC50 fell in the range of 20 to 10000 nM. As for `CC(C)n1cc(-c2ccc(Cl)c(F)c2)c2ccc(C(=O)N3CCNC(=O)C3(C)C)nc21` [Example 96, 4-(3-(4-chloro-3-fluorophenyl)-1-isopropyl-1H-pyrrolo[2,3-b]pyridine-6-carbonyl)-3,3-dimethylpiperazin-2-one], the IC50 was less than 20 nM. As for `CC1(C)C(=O)NCCN1C(=O)c1ccc2c(-c3ccc(Cl)c(F)c3)cn(Cc3ccncc3)c2n1` [Example 120, 4-(3-(4-chloro-3-fluorophenyl)-1-(pyridin-4-ylmethyl)-1H-pyrrolo[2,3-b]pyridine-6-carbonyl)-3,3-dimethylpiperazin-2-one], the IC50 lay within 20 to 10000 nM.

Regarding `COc1ccc(Cn2cc(-c3ccc(Cl)c(F)c3)c3ccc(C(=O)N4CCNC(=O)C4(C)C)nc32)cc1` [Example 27, 4-(3-(4-chloro-3-fluorophenyl)-1-(4-methoxybenzyl)-1H-pyrrolo[2,3-b]pyridine-6-carbonyl)-3,3-dimethylpiperazin-2-one], the IC50 is 20 to 10000 nM. With `CC(C)Cn1cc(-c2ccc(Cl)c(Cl)c2)c2ccc(C(=O)N3CCNC(=O)C3(C)C)nc21` [Example 107, 4-(3-(3,4-dichlorophenyl)-1-isobutyl-1H-pyrrolo[2,3-b]pyridine-6-carbonyl)-3,3-dimethylpiperazin-2-one], the IC50 was less than 20 nM. On to `CC(C)(C)n1cc(-c2ccc(Cl)c(F)c2)c2ccc(C(=O)N3CCC(C(=O)O)CC3)nc21` [Example 162, 1-(1-(tert-butyl)-3-(4-chloro-3-fluorophenyl)-1H-pyrrolo[2,3-b]pyridine-6-carbonyl)piperidine-4-carboxylic acid], for which the IC50 fell in the range of 20 to 10000 nM. The value for `CC(C)(C)n1cc(-c2ccc(Cl)c(F)c2)c2ccc(C(=O)N3CCC4(NC(=O)NC4=O)C(F)(F)C3)nc21` (stereo not drawn) [Example 201, 8-(1-(tert-butyl)-3-(4-chloro-3-fluorophenyl)-1H-pyrrolo[2,3-b]pyridine-6-carbonyl)-6,6-difluoro-1,3,8-triazaspiro[4.5]decane-2,4-dione] was 20 to 10000 nM. For `CC(C)(C)n1cc(-c2ccc(Cl)c(F)c2)c2ccc(C(=O)N3CCC(CC(=O)O)CC3)nc21` [Example 125, 2-(1-(1-(tert-butyl)-3-(4-chloro-3-fluorophenyl)-1H-pyrrolo[2,3-b]pyridine-6-carbonyl)piperidin-4-yl)acetic acid], the IC50 fell in the range of 20 to 10000 nM. For the compound `CC(C)(C)n1cc(-c2ccc(Cl)c(F)c2)c2ccc(C(=O)N3[C@@H]4CC[C@H]3CC(O)C4)nc21` (stereo partly drawn) [Example 11, (1-(tert-butyl)-3-(4-chloro-3-fluorophenyl)-1H-pyrrolo[2,3-b]pyridin-6-yl)((1R,3r,5S)-3-hydroxy-8-azabicyclo[3.2.1]octan-8-yl)methanone], the IC50 is greater than 10000 nM.

Consider `CC(C)Cc1nn(-c2ccc(Cl)cc2Cl)c2ccc(C(=O)N3CCNC(=O)C3(C)C)nc12` [Example 73, 4-(1-(2,4-dichlorophenyl)-3-isobutyl-1H-pyrazolo[4,3-b]pyridine-5-carbonyl)-3,3-dimethylpiperazin-2-one], for which the IC50 lay within 20 to 10000 nM. Then `Cc1cc(N2CCN(C(=O)c3ccc4c(-c5ccc(Cl)c(F)c5)c(C)n(CC(C)C)c4n3)C(C)(C)C2)nc(C)c1C(=O)O` [Example 104, 6-(4-(3-(4-chloro-3-fluorophenyl)-1-isobutyl-2-methyl-1H-pyrrolo[2,3-b]pyridine-6-carbonyl)-3,3-dimethylpiperazin-1-yl)-2,4-dimethylnicotinic acid], with less than 20 nM; and `CC(C)Cn1cc(-c2ccc(Cl)c(F)c2)c2ccc(C(=O)N3CCC(CC(=O)O)CC3)cc21` [Example 204, 2-(1-(3-(4-chloro-3-fluorophenyl)-1-isobutyl-1H-indole-6-carbonyl)piperidin-4-yl)acetic acid], with 20 to 10000 nM; and `Cc1cc(N2CCN(C(=O)c3ccc4c(-c5ccc(Cl)c(F)c5)cn(Cc5cnccn5)c4n3)C(C)(C)C2)nc(C)c1C(=O)O` [Example 103, 6-(4-(3-(4-chloro-3-fluorophenyl)-1-(pyrazin-2-ylmethyl)-1H-pyrrolo[2,3-b]pyridine-6-carbonyl)-3,3-dimethylpiperazin-1-yl)-2,4-dimethylnicotinic acid], with 20 to 10000 nM.
